How the values were obtained:
[1] = molecular target: T1, Replicase polyprotein 1ab (Severe acute respiratory syndrome coronavirus 2, UniProt P0DTD1); assay: Inhibition of SARS-CoV-2 papain-like protease
[2] = molecular target: T1, Replicase polyprotein 1ab; assay: Inhibition of SARS-CoV-2 papain-like protease using fluorescent substrate preincubated for 1 hr by fluorescence based assay
[3] = molecular target: T1, Replicase polyprotein 1ab; assay: Inhibition of SARS-CoV-2 papain-like protease assessed as viral protease-mediated deubiquitination using ubiquitinated substrate incubated for 16 to 18 hrs by fluorescence based assay
[4] = molecular target: T1, Replicase polyprotein 1ab; assay: Inhibition of TAP-tagged SARS-CoV-2 papain-like protease nsp123
[5] = molecular target: T1, Replicase polyprotein 1ab; assay: Inhibition of TAP-tagged SARS-CoV-2 papain-like protease nsp23
[6] = molecular target: T1, Replicase polyprotein 1ab; assay: Inhibition of SARS-CoV-2 papain-like protease-mediated de-ISGylation
[7] = molecular target: T1, Replicase polyprotein 1ab; assay: Binding affinity to CM5 chip immobilized full-length wild-type SARS-CoV-2 papain-like protease (1564 to 1878 residues) expressed in Escherichia coli BL21 (DE3) assessed as dissociation constant incubated for 90 secs by SPR analysis
[8] = molecular target: T1, Replicase polyprotein 1ab; assay: Inhibition of N-terminal 3xFlag-His6-tagged SARS-CoV-2 papain-like protease nsp3 (1564 to 1878 residues) expressed in baculovirus infected Sf9 insect cells using Pro3 as substrate by fluorescence based assay
[9] = molecular target: T1, Replicase polyprotein 1ab; assay: Inhibition of C-terminal His-tagged SARS-CoV-2 BetaCoV/Wuhan/WIV04/2019 papain-like protease (1564 to 1876 residues) expressed in Escherichia coli BL21 (DE3) using Dabcyl-FTLRGG/APTKV as substrate preincubated for 1 hr followed by substrate addition measured after 3 hrs by FRET assay
[10] = molecular target: T1, Replicase polyprotein 1ab; assay: Inhibition of recombinant SARS-CoV-2 papain-like protease using Z-Arg-Leu-Arg-Gly-Gly-AMC as substrate by enzymatic assay
[11] = molecular target: T1, Replicase polyprotein 1ab; assay: Inhibition of recombinant SARS-CoV-2 main protease using ATLQAIAS as substrate preincubated for 15 mins by enzymatic assay
[12] = molecular target: T1, Replicase polyprotein 1ab; assay: Inhibition of SARS-CoV-2 papain-like protease expressed in Escherichia coli BL21 (DE3) using Z-LRGG-AMC/Z-RLRGG-AMC as substrate preincubated for 30 mins by enzymatic assay
[13] = molecular target: T1, Replicase polyprotein 1ab; assay: Inhibition of SARS-CoV-2 papain-like protease using ISG15-Rh as substrate
[14] = molecular target: T1, Replicase polyprotein 1ab; assay: Inhibition of 6xHis-tagged SARS-CoV-2 papain-like protease expressed in Escherichia coli BL21 (DE3) using ISG15-FITC as substrate incubated for 30 mins by fluorescence polarization assay
[15] = molecular target: T1, Replicase polyprotein 1ab; assay: Binding affinity to biotin-tagged SARS-CoV-2 papain-like protease expressed in Escherichia coli BL21 (DE3) assessed as dissociation constant incubated for 3 mins by BLI assay
[16] = molecular target: T1, Replicase polyprotein 1ab; assay: Inhibition of SARS-CoV-2 papain-like protease using RLRGG-AMC as substrate

O=C1c2ccccc2C(=O)c2oc(-c3ccccc3)nc21
IC50 [1]: 0.56 µM

O=C1c2c(O)cccc2[C@@H]([C@@H]2O[C@H](CO)[C@@H](O)[C@H](O)[C@H]2O)c2cc(CO)cc(O)c21
IC50 [2]: 16.1 µM | IC50 [3]: 17.5 µM

Nc1nc2nc[nH]c2c(=S)[nH]1
IC50 [4]: 0.5 µM | IC50 [5]: 1 µM | IC50 [6]: 0.1 µM

C[C@H](c1cccc2ccccc12)N1CCC(C(=O)NCc2cc(F)cc(NC(=O)N3CCN(C)CC3)c2)CC1
Kd [7]: 2.6 µM

O=C1c2ccccc2-c2nc3nnnn3nc21
IC50 [8]: 0.26 µM

C[C@H](c1ccccc1Cl)N(C)Cc1cc(O)ccc1Cl
IC50 [9]: 6.67 µM

CN(Cc1cn(C2C3=C(OC2(C)C)c2ccccc2C(=O)C3=O)nn1)C1=CC(=O)c2ccccc2C1=O (stereo unspecified)
IC50 [10]: 2.2 µM

CN(Cc1cn(C2C3=C(OC2(C)C)c2ccccc2C(=O)C3=O)nn1)C1=C(Br)C(=O)c2ccccc2C1=O (stereo unspecified)
IC50 [11]: 66 µM | IC50 [10]: 3.1 µM

C[C@@H](NC(=O)c1ccccc1CCC(=O)NNC(=O)/C(C#N)=C/C1CC1)c1cccc2ccccc12
IC50 [12]: > 200 µM

OCCc1ccc(O)cc1 [4-(2-Hydroxy-ethyl)-phenol]
IC50 [13]: 6.68 µM

O=Cc1ccc(O)cc1 [4-hydroxybenzaldehyde]
IC50 [13]: 3.99 µM

Cc1ccc(NC2=CC(=O)c3sc(C)nc3C2=O)cc1 [5-(N-(4-Methylphenyl)amino)-2-methyl-4,7-dioxobenzothiazole]
IC50 [8]: 0.39 µM

Oc1c(Cl)cc(Cl)c2cccnc12 [AS-229]
IC50 [14]: 7.24 µM | Kd [15]: 4.6 µM

O=C1c2c(O)cccc2[C@H]([C@@H]2O[C@H](CO)[C@@H](O)[C@H](O)[C@H]2O)c2cc(CO)cc(O)c21 [CHEBI:2991]
IC50 [2]: 13.2 µM | IC50 [3]: 15.7 µM

Nc1ccc2cc3ccc(N)cc3nc2c1 [acridine-3,6-diamine]
IC50 [16]: 1.66 µM
